Legend:
[1] = Level of Copaxone in THP-1 cell culture medium over time; type: physicochemical; details: THP-1 culture medium, over 24 hours; 50 μg/mL spiked
mouse splenocytes = test: Microarray gene expression of splenocytes from Copaxone- or Polimunol-immunized mice activated ex vivo with Copaxone or Polimunol; type: cell-based
Description: All experimental procedures conformed to accepted ethical standards for use of animals in research and were in accordance with Committee for the Care and Use of Experimental Animals guidelines and approved by the Teva Institutional Animal Care and Use Committee. For these experiments, 8- to 12-week-old female (Balb/c X SJL) F1 mice (Janvier, France) were purchased. Mice were kept at 21±3° C.; the relative humidity was 30-70%, the light/dark cycle was 12/12 h. Animals were maintained on a standard rodent pellet diet and sterile filtered tap water available ad libitum.
To stimulate induction of GA-reactive T cells, twelve mice were injected with 100 μL of a 2.5 mg/mL solution of GA reference standard (GA-RS) in phosphate-buffered saline (250 μg GARS per mouse). GA-RS (Teva) is a selected GA drug substance batch defined as the standard batch and used as a reference in quality control release tests of all Copaxone® batches. Another group of twelve mice were injected with 100 μL of a 2.5 mg/mL solution of Polimunol in phosphate-buffered saline (250 μg Polimunol per mouse). Polimunol is a proposed generic manufactured a company other than Teva. […] A single cell suspension was prepared. After red blood cells lysis, splenocytes from the same immunization group were pulled and resuspended to a final concentration of 10×10^6 cells/mL in defined cell culture media (DCCM1) (Biological Industries, Beit Haemek, Israel) (96.7% v/v) enriched with L-glutamine 2 mM (1% v/v), MEM Non-Essential Amino Acids 2 mM (1% v/v), sodium pyruvate 1 mM (1% v/v), antibiotic/antimycotic solution (0.2% v/v) and 2-mercaptoethanol 50 mM (0.1% v/v).
Splenocytes were treated with activator samples diluted in medium (125 μL per well of 80 μg/mL solutions, final concentration in the well: 40 μg/mL) of: i) 3 different batches of GA drug product manufactured by Teva ii) one batch of proposed generic (Polimunol). Polimunol is a product marketed as generic GA and manufactured by a company other than Teva (i.e. Synthon). […] Splenocytes (125 μL 10×10^6 SPL cell/mL suspension) were added to the activator solutions. Each activator sample was loaded in two different plates. One for the cells from mice immunized with GA and one for cells from mice immunized with proposed generic. Plates were incubated for 24 h at 37° C. Cells were collected from the wells and were centrifuged at 300 g for 5 minutes. Supernatants were aspirated and cell pellets were resuspended in RLT buffer (from RNeasy mini kit of Qiagen, Cat #74106) for cell lysis. The cell lysates were centrifuged and supernatants were collected and frozen at −70° C. Samples were sent for further processing.
For additional detail on experimental methods used in mouse studies, please refer to publications [Bakshi et al; Towfic et al]. Note that in this study, mice were immunized with either Copaxone® or Polimunol, and subsequently splenocytes were isolated and treated ex vivo with Copaxone® or Polimunol. RNA was extracted and expression profiled across the entire genome using the Affymetrix Mouse Genome 430 2 chip. Three lots of Copaxone®, and one lot of Polimunol were comparatively tested in six replicates each.
Outlier samples were identified using the R package ArrayQCMetrics and excluded from further data processing steps. A sample was considered an outlier if it failed more than half of the included tests either before or after RMA normalization. Data were RMA normalized using the Affy R package.
Correction for batch variation was performed using ComBat as described above (THP-1 methods). Date of microarray experiment was used as batch, and the combination of treatment and immunization was used as covariate.
Differentially expressed probesets were identified across conditions using linear models for microarray data (LIMMA; Smyth, G. K. (2004)), a standard R Bioconductor package. Linear models and empirical Bayes methods for assessing differential expression in microarray experiments. […]

[2] = tested on: THP-1 human monocyte cell line; test: Pathway enrichment (DAVID) in THP-1 cells, Example 9; type: cell-based; details: genes upregulated vs mannitol, 6 hours
Description: Nucleic Acids Res. 37, 1-13 (2009)]. Pathway enrichment results were visualized using volcano plots, plotting −log p-values versus enrichment scores. For GA MOA, to obtain top-gene lists of appropriate size (tens-hundreds) for use with DAVID, an absolute-value fold-change cutoff of 1.5 and p-value cutoff of 1e-3 were utilized to obtain gene lists for pathway enrichment. […] DAVID runs were conducted on Sep. […] Please note that the GO databases are updated daily (as noted on the GO site:www.geneontology.org/GO.downloads.ontology.shtml) and therefore performing the same enrichments on the same genesets may yield slightly varying results depending on the rundate. Pathway p-values may change slightly between runs conducted at different times; the overall picture of enriched pathways, however, is expected to remain consistent.
Performing the same enrichments on the same genesets may yield slightly varying results depending on the run date (GO databases are updated daily: www.geneontology.org/GO.downloads.ontology.shtml).

[3] = type: in vivo, human
Source text: The Teva Patient Support Program in Mexico has an extensive database. Given that patients can switch between branded and purported generic GA, all patients are kept within the database and are provided with patient support services.
The number of relapses reported by patients in Teva's Patient Support Program on a monthly basis during the years 2012 and 2013 i. It is again clear that when Copaxone alone was in use (i.e. throughout 2012) the overall, as well as per-month number of relapses was lower than that reported when Probioglat was present in the market (i.e. throughout 2013).
These findings have identified significant differences that warrant further investigation, especially in light of the observed clinical effects of Probioglat's introduction. The Teva Patient Support Program in Mexico records numbers of adverse events, including during the years 2012 and 2013 (Table 31; FIG. 46), for which a similar number of patients were tracked (1618 patients in 2012; 1552 in 2013). Probioglat was first introduced in January 2013; subsequently, each time a patient's prescription was filled, it could be with either Probioglat or GA. […] The gene-expression differences observed herein warrant careful investigation, through studies comparing GA to candidate generics in meaningful settings, most comprehensively including clinical trials.

## glatiramer acetate [Copaxone®]
[1]
  Copaxone concentration in cell culture medium: 44 to 52 µg/mL
Mouse splenocytes; Copaxone immunization, adj p<3.4e-23
  Foxp3 expression: upregulated
Mouse splenocytes; Copaxone immunization, two probesets, adj p<4.2e-33 and 9.0e-31
  Gpr83 expression: upregulated
Mouse splenocytes; Copaxone-immunized mice
  Probesets downregulated by Copaxone relative to medium: 8,305
  Probesets downregulated by Copaxone relative to medium, |FC|≧2: 485
  Probesets significantly modulated by Copaxone relative to medium: 16,647
  Probesets upregulated by Copaxone relative to medium: 8,342
  Probesets upregulated by Copaxone relative to medium, |FC|≧2: 411
[2]; GO:0001503~ossification (GOTERM BP_ALL)
  Fold Enrichment: 4.068
[2]; GO:0007204~elevation of cytosolic calcium ion concentration (GOTERM BP_ALL)
  Fold Enrichment: 4.773
[2]; GO:0010557~positive regulation of macromolecule biosynthetic process (GOTERM BP_ALL)
  Fold Enrichment: 1.871
[2]; GO:0010628~positive regulation of gene expression (GOTERM BP_ALL)
  Fold Enrichment: 1.936
[2]; GO:0051241~negative regulation of multicellular organismal process (GOTERM BP_ALL)
  Fold Enrichment: 3.649
[3]; 2012, only branded GA marketed, 1618 patients
  Numbers of relapses reported: 8
[3]; human, in vivo
  Adverse Event Rate (per month): 10.4 per month
  Numbers of adverse events reported: 125

From patent publication US20170003277A1 (priority 2015, published 2017)
